What is called Ki is a dissociation constant, usually derived from enzyme kinetics or from competition with a known ligand. A low value points to a stronger hold on the target. The EC50 is the concentration needed to bring the measured effect to its halfway point. A lower EC50 goes with greater potency.

For assay [1], the target named is Human immunodeficiency virus type 1 protease (Human immunodeficiency virus 1, UniProt Q72874). The assay is described as follows: Inhibition of HIV-1 protease using Abz-Thr-Ile-Nle-Phe-(p-NO2)-Gln-Arg-NH2 as substrate preincubated for 5 to 10 mins followed by substrate addition and measured after 1 hr by spectrofluorometric assay.
For assay [2], the system named is Human immunodeficiency virus 1. The assay is described as follows: Antiviral activity against HIV-1 LAI infected in human MT2 cells reduction in virus-induced cytopathic effect measured after 7 days by MTT assay. It counts as functional, organism-based. The settings on record: Human immunodeficiency virus 1, LAI, MT2, 168 h. (In general: Damage to the host cells serves as the signal in cytopathic effect assays.)

On to `COc1ccc(S(=O)(=O)N(CC(C)C)C[C@@H](O)[C@H](Cc2ccccc2)NC(=O)O[C@H]2CC[C@@H]3C[C@H]4CO[C@@H](C(C)C)[C@@]42O3)cc1`, for which the inhibitory constant (Ki) in assay [1] was 855 nM.

On to `COc1ccc(S(=O)(=O)N(CC(C)C)C[C@@H](O)[C@H](Cc2ccccc2)NC(=O)O[C@@H]2CC[C@@H]3C[C@H]4CO[C@@H](C(C)C)[C@@]42O3)cc1`, for which the Ki in assay [1] amounted to 620 nM. In assay [2], this compound showed a concentration for a half-maximal effect (EC50) of over 1000 nM.

For the compound `COc1ccc(S(=O)(=O)N(CC(C)C)C[C@@H](O)[C@H](Cc2ccccc2)NC(=O)O[C@@H]2CC[C@@H]3C[C@H]4CO[C@@H](C)[C@@]42O3)cc1`, in assay [1], the inhibitory constant (Ki) was found to be 20.6 nM. Further, in assay [2], the concentration giving a half-maximal response (EC50) was over 1000 nM.

`COc1ccc(S(=O)(=O)N(CC(C)C)C[C@@H](O)[C@H](Cc2ccccc2)NC(=O)O[C@H]2CC[C@@H]3C[C@H]4CO[C@@H](c5ccccc5)[C@@]42O3)cc1` registered a Ki in assay [1] of 43 nM. In addition, the EC50 in assay [2] is over 1000 nM.

Compound `COc1ccc(S(=O)(=O)N(CC(C)C)C[C@@H](O)[C@H](Cc2ccccc2)NC(=O)O[C@H]2CC[C@@H]3C[C@H]4CO[C@@H](C)[C@@]42O3)cc1` came in with a Ki in assay [1] of 1.65 nM. In addition, the EC50 in assay [2] amounted to 240 nM.

In turn, `COc1ccc(S(=O)(=O)N(CC(C)C)C[C@@H](O)[C@H](Cc2ccccc2)NC(=O)O[C@@H]2CC[C@@H]3C[C@H]4CO[C@@H](c5ccccc5)[C@@]42O3)cc1` yielded a Ki in assay [1] of 1300 nM. For the same compound, the EC50 in assay [2] was over 1000 nM.

Compound `COc1ccc(S(=O)(=O)N(CC(C)C)C[C@@H](O)[C@H](Cc2ccccc2)NC(=O)O[C@@H]2CC[C@H]3C[C@@H]4CO[C@H](c5ccccc5)[C@]42O3)cc1` registered a Ki in assay [1] of 272 nM. This compound also registered an EC50 in assay [2] of over 1000 nM.

For `COc1ccc(S(=O)(=O)N(CC(C)C)C[C@@H](O)[C@H](Cc2ccccc2)NC(=O)O[C@H]2CC[C@H]3C[C@@H]4CO[C@H](c5ccccc5)[C@]42O3)cc1`, the Ki in assay [1] is 424 nM. In assay [2], this compound displayed a half-maximal effective concentration (EC50) of over 1000 nM.

The record behind these values is ChEMBL document CHEMBL6109060, “Potent HIV‑1 protease inhibitors containing oxabicyclo octanol-derived P2-ligands: Design, synthesis, and X‑ray structural studies of inhibitor-HIV-1 protease complexes” (Bioorg Med Chem Lett, 2025).
